US9975896B2, “Inhibitors of transcription factors and uses thereof” (Dana-Farber Cancer Institute, Inc., priority 2013, dated 2018)
Where two headings read alike, the source gives them in different places.

What was measured:
Assay in all cases: BromoScan selectivity panel (Kd)
Format in all cases: binding
[1] = biological target: T1, ATAD2A (Homo sapiens, UniProt Q6PL18)
T1 sequence (Q6PL18 981-1108 limits assumed): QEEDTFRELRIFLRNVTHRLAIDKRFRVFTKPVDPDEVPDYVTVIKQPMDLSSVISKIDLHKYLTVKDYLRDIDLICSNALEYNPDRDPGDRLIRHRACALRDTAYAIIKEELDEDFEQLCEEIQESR

[2] = biological target: T2, BAZ2A (Homo sapiens, UniProt Q9UIF9)
T2 sequence (Q9UIF9 1796-1899 limits assumed): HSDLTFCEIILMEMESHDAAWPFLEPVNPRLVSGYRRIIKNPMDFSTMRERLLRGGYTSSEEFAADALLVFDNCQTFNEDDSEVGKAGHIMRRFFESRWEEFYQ

[3] = biological target: T3, BAZ2B (Homo sapiens, UniProt Q9UIF8)
T3 sequence (Q9UIF8 2054-2168 limits assumed): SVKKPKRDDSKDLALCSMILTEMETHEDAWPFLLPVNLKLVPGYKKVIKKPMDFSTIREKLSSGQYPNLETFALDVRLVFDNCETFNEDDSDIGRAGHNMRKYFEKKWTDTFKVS

[4] = biological target: T4, BRD2(1) (Homo sapiens, UniProt P25440)
T4 construct: the bromodomain-containing protein is BRD2(1)

[5] = biological target: T5, BRD3(1) (Homo sapiens, UniProt Q15059)
T5 construct: the bromodomain-containing protein is BRD3(1)

[6] = biological target: T6, BRD4(1) (Homo sapiens, UniProt O60885)
T6 construct: the bromodomain-containing protein is BRD4(1)

[7] = biological target: T7, BRDT(1) (Homo sapiens, UniProt Q58F21)
T7 construct: the bromodomain-containing protein is BRDT(1)

[8] = biological target: BRDT(2) (Homo sapiens, UniProt Q58F21)
[9] = biological target: T8, TAF1(2) (Homo sapiens, UniProt P21675)
T8 construct: TAF1(2)
T8 sequence (P21675 1519-1628 limits assumed): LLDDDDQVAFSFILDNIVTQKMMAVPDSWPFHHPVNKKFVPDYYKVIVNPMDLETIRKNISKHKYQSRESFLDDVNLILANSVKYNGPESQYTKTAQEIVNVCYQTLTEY

[10] = biological target: T9, TRIM24(PHD Bromo.) (Homo sapiens, UniProt O15164)
T9 construct: TRIM24(PHD Bromo.)
T9 sequence (O15164 824-1006 limits assumed): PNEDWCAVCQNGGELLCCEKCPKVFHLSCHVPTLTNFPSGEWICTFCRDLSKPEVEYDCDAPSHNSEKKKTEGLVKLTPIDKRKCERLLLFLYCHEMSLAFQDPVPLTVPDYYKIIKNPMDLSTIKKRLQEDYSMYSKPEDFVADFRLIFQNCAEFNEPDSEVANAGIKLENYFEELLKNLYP

[11] = biological target: T10, TRIM33(PHD Bromo.) (Homo sapiens, UniProt Q9UPN9)
T10 construct: TRIM33(PHD, Bromo.); TRIM33(PHD Bromo.); fused on or other part: The vendor panel's detection tag or display handle
T10 sequence (Q9UPN9 1-1127): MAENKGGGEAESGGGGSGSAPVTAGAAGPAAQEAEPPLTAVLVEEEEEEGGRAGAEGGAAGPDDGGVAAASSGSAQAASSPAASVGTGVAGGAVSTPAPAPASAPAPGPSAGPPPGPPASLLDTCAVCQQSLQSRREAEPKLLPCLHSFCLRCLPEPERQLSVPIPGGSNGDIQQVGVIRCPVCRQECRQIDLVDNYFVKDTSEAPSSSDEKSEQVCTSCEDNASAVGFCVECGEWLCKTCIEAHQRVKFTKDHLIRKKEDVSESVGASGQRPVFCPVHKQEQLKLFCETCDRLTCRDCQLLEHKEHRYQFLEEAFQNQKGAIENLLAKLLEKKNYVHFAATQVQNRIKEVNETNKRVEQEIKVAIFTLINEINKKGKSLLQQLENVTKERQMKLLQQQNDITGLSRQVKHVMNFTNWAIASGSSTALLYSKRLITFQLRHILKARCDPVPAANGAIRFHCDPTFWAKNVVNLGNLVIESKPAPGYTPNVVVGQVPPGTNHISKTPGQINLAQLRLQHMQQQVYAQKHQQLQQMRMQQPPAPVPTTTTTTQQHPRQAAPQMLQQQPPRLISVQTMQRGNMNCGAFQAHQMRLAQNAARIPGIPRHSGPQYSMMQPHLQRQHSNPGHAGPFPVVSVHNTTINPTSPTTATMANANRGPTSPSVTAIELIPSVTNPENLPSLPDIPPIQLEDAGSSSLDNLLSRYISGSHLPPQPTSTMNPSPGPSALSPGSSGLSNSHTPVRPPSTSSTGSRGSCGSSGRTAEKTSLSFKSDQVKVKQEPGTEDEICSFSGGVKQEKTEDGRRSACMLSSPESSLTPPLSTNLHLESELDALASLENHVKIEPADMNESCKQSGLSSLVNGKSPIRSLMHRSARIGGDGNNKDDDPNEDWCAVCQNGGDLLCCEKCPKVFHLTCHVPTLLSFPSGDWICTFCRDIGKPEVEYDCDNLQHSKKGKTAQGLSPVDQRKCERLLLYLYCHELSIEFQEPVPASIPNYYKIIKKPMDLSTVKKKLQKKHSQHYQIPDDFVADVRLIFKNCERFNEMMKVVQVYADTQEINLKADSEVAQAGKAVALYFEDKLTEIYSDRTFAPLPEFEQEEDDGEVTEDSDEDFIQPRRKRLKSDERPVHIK

T4 sequence (P25440 74-180 limits assumed): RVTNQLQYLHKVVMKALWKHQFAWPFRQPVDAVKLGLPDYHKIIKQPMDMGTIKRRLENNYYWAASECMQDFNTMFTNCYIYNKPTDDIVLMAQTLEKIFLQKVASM
T5 sequence (Q15059 34-140 limits assumed): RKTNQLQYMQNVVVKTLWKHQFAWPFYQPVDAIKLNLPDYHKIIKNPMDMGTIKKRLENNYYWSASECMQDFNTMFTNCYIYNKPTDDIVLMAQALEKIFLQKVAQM

Cc1noc(C)c1-c1ccc(-c2nc3cnccn3c2NC(C)(C)C)cc1 [UMB32, N-(tert-butyl)-2-(4-(3,5-dimethylisoxazol-4-yl)phenyl)imidazo[1,2-a]pyrazin-3-amine]
Kd ([1]; Table 8, read-out: Kd (nM) ATAD2A): ≥ 40000 nM
Kd ([1]; Table 9, read-out: BromoScan Kd, nM ATAD2A): ≥ 40000 nM
Kd ([2]; Table 8, read-out: Kd (nM) BAZ2A): ≥ 40000 nM
Kd ([2]; Table 9, read-out: BromoScan Kd, nM BAZ2A): ≥ 40000 nM
Kd ([3]; Table 8, read-out: Kd (nM) BAZ2B): ≥ 40000 nM
Kd ([3]; Table 9, read-out: BromoScan Kd, nM BAZ2B): ≥ 40000 nM
Kd ([4]; Table 8, read-out: Kd (nM) BRD2(1)): 94 nM
Kd ([4]; Table 9, read-out: BromoScan Kd, nM BRD2(1)): 94 nM
Kd ([5]; Table 8, read-out: Kd (nM) BRD3(1)): 35 nM
Kd ([5]; Table 9, read-out: BromoScan Kd, nM BRD3(1)): 35 nM
Kd ([6]; Table 8, read-out: Kd (nM) BRD4(1)): 80 nM
Kd ([6]; Table 9, read-out: BromoScan Kd, nM BRD4(1)): 80 nM
Kd ([7]; Table 8, read-out: Kd (nM) BRDT(1)): 110 nM
Kd ([7]; Table 9, read-out: BromoScan Kd, nM BRDT(1)): 110 nM
Kd ([8]; Table 8, read-out: Kd (nM) BRDT(2)): 75 nM
Kd ([8]; Table 9, read-out: BromoScan Kd, nM BRDT(2)): 75 nM
Kd ([9]; Table 8, read-out: Kd (nM) TAF1(2)): 560 nM
Kd ([9]; Table 9, read-out: BromoScan Kd, nM TAF1(2)): 560 nM
Kd ([10]; Table 8, read-out: Kd (nM) TRIM24(PHD Bromo.)): ≥ 40000 nM
Kd ([10]; Table 9, read-out: BromoScan Kd, nM TRIM24(PHD, Bromo.)): ≥ 40000 nM
Kd ([11]; Table 8, read-out: Kd (nM) TRIM33(PHD Bromo.)): ≥ 40000 nM
Kd ([11]; Table 9, read-out: BromoScan Kd, nM TRIM33(PHD, Bromo.)): ≥ 40000 nM
